{
  "source": "patent US11339163B2",
  "about": "“BRaf inhibitors and use thereof for treatment of cutaneous reactions” (Lutris Pharma Ltd., priority 2017, dated 2022)",
  "key": {"[1]": {"target": "CaMKI(h) (Homo sapiens, UniProt Q14012)", "test": "KinaseProfiler kinase selectivity assay", "assay_type": "biochemical", "method": "(§1) All compounds were prepared to 50× final assay concentration in 100% DMSO. This working stock of the compound was added to the assay well as the first component in the reaction, followed by the remaining components. In the standard KinaseProfiler™ service, there is no pre-incubation step between the compound and the kinase prior to initiation of the reaction. The positive control wells contain all components of the reaction, except the compound of interest; however, DMSO (at a final concentration of 2%) is included in these wells to control for solvent effects. The blank wells contain all components of the reaction, with a reference inhibitor replacing the compound of interest. This abolishes kinase activity and establishes the base-line (0% kinase activity remaining)."}, "[2]": {"target": "PI3 Kinase (p120γ)(h) (Homo sapiens, UniProt P48736)", "sequence (P48736 whole entry)": "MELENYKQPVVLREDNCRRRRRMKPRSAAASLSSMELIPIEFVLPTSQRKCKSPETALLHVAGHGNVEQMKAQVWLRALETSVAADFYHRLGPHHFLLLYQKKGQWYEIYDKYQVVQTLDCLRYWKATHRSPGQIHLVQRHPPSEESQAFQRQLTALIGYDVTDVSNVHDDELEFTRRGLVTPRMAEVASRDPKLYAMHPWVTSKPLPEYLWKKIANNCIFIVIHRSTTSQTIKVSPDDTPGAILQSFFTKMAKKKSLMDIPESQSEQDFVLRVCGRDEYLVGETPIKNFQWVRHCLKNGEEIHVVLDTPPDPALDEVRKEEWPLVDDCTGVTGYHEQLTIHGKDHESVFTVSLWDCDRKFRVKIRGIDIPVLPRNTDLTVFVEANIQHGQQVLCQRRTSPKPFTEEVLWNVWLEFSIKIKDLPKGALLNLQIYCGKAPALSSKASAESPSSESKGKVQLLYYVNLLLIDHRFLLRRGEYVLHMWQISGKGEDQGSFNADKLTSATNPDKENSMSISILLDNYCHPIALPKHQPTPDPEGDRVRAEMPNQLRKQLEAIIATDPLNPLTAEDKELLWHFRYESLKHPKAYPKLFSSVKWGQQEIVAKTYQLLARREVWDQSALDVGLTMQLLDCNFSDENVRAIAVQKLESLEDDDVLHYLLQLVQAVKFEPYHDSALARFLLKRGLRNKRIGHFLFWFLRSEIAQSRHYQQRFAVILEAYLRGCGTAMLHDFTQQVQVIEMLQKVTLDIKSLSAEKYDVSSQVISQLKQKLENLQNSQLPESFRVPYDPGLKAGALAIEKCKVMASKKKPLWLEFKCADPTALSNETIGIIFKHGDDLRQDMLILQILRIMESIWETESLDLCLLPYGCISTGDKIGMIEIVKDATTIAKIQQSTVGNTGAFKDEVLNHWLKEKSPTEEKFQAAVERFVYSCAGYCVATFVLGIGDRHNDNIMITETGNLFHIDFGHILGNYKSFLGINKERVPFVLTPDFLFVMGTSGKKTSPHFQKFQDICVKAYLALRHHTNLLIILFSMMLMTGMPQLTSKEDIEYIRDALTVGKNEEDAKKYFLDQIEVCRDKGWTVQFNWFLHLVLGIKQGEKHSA", "test": "KinaseProfiler kinase selectivity assay", "assay_type": "biochemical", "method": "as §1"}, "[3]": {"target": "MEK1(h) (Homo sapiens, UniProt Q02750)", "sequence (Q02750 whole entry)": "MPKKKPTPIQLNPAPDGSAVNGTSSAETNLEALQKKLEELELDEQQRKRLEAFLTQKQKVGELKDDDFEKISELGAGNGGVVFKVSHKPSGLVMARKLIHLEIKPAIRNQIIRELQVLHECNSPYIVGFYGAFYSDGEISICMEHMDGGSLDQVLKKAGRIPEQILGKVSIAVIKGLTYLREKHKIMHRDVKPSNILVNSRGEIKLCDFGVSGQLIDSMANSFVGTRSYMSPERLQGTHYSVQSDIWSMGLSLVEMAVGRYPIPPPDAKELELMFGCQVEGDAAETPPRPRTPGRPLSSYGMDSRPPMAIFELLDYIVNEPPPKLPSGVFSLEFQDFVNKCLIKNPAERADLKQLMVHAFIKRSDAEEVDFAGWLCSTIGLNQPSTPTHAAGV", "test": "KinaseProfiler kinase selectivity assay", "assay_type": "biochemical", "method": "as §1"}, "[4]": {"target": "JAK2(h) (Homo sapiens, UniProt O60674)", "sequence (O60674 whole entry)": "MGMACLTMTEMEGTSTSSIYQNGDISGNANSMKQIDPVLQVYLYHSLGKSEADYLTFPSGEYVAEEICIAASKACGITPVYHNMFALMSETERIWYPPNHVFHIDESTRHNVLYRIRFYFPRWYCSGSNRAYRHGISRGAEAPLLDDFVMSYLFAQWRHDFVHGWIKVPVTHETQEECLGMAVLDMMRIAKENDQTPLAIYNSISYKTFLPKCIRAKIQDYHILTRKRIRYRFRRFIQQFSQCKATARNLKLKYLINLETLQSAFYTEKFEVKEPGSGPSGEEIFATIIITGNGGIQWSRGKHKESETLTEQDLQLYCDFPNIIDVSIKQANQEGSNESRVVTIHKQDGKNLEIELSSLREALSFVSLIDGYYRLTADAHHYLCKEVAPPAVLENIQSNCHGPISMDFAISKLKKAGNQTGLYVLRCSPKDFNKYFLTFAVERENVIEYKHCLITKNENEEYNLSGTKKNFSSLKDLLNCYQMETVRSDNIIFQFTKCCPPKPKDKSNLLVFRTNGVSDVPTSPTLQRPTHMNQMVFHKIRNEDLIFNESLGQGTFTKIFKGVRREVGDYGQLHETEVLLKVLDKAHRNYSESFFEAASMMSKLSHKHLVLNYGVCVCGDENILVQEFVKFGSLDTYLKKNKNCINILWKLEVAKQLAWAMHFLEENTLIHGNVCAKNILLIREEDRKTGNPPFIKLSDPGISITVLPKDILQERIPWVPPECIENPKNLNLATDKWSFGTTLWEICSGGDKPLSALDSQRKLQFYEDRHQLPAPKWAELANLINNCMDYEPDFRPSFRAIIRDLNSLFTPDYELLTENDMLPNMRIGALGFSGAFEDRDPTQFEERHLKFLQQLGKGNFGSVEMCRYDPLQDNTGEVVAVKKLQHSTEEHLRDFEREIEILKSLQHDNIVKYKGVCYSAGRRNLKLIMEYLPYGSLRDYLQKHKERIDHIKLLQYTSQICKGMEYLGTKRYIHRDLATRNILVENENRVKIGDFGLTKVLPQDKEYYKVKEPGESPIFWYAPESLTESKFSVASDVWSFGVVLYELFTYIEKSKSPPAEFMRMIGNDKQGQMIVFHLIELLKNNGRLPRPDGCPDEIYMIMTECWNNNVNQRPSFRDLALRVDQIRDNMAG", "test": "KinaseProfiler kinase selectivity assay", "assay_type": "biochemical", "method": "as §1"}, "[5]": {"target": "Rse(h) (Homo sapiens, UniProt Q06418)", "test": "KinaseProfiler kinase selectivity assay", "assay_type": "biochemical", "method": "as §1"}, "[6]": {"target": "CDK7/cyclinH/MAT1(h) (Homo sapiens, UniProt P50613)", "sequence (P50613 whole entry)": "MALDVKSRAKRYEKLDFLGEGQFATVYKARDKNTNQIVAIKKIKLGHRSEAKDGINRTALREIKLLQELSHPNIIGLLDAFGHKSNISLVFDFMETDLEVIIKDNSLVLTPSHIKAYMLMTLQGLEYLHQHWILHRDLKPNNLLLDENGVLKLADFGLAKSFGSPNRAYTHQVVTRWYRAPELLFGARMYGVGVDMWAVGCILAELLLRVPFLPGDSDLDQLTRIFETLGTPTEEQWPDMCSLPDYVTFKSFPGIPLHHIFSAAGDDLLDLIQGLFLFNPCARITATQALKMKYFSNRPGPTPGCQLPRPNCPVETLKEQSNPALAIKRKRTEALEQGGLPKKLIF", "sequence (P51946 whole entry partner)": "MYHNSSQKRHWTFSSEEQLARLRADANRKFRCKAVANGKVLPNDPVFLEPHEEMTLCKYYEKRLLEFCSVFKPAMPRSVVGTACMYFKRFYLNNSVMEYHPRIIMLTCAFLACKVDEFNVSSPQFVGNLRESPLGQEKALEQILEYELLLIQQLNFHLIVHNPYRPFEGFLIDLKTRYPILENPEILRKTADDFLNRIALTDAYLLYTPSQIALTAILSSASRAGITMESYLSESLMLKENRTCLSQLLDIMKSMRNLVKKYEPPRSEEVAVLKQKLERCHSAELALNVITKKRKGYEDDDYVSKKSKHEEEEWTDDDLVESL", "sequence (P51948 whole entry partner)": "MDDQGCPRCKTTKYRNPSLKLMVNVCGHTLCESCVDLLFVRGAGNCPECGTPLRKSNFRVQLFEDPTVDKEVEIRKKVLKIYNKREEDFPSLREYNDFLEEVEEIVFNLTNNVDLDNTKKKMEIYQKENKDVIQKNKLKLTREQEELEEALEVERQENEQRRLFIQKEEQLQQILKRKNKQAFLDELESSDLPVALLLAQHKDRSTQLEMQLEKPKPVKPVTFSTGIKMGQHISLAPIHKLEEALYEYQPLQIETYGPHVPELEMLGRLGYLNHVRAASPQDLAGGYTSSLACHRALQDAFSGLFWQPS", "test": "KinaseProfiler kinase selectivity assay", "assay_type": "biochemical", "method": "as §1"}, "[7]": {"target": "Rsk1(h) (Homo sapiens, UniProt Q15418)", "test": "KinaseProfiler kinase selectivity assay", "assay_type": "biochemical", "method": "as §1"}, "[8]": {"target": "PRAK(h) (Homo sapiens, UniProt Q8IW41)", "test": "KinaseProfiler kinase selectivity assay", "assay_type": "biochemical", "method": "as §1"}, "[9]": {"target": "Lyn(h) (Homo sapiens, UniProt P07948)", "test": "KinaseProfiler kinase selectivity assay", "assay_type": "biochemical", "method": "as §1"}, "[10]": {"target": "Abl(h) (Homo sapiens, UniProt P00519)", "sequence (P00519 whole entry)": "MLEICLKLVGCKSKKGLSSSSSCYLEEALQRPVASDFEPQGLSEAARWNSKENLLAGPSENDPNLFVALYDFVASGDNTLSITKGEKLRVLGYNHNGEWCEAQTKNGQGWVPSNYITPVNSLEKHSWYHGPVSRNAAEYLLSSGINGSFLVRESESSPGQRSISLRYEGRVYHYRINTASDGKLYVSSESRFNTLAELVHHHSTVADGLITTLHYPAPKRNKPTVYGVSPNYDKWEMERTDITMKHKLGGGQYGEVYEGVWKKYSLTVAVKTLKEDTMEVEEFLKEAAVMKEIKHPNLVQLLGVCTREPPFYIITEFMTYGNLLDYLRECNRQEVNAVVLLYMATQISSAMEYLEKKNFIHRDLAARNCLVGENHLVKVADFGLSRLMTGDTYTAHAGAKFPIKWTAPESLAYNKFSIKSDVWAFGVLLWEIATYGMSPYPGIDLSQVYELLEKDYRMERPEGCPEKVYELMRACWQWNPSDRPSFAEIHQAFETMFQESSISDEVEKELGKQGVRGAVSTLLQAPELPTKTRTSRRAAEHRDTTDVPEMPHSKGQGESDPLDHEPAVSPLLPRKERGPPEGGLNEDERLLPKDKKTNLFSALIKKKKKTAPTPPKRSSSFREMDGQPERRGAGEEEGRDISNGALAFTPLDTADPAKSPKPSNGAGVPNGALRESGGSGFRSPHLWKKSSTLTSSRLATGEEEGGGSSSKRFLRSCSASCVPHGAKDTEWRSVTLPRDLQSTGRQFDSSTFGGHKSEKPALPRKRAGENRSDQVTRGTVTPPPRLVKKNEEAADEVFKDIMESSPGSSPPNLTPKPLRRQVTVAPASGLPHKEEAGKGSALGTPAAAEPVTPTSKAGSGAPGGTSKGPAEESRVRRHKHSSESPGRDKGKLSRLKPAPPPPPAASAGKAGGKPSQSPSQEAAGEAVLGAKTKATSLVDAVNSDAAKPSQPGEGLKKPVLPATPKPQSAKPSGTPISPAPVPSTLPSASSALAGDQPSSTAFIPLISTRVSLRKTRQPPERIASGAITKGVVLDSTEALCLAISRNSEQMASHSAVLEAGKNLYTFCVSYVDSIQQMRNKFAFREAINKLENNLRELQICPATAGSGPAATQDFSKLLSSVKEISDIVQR", "test": "KinaseProfiler kinase selectivity assay", "assay_type": "biochemical", "method": "as §1"}, "[11]": {"target": "PKBα(h) (Homo sapiens, UniProt P31749)", "test": "KinaseProfiler kinase selectivity assay", "assay_type": "biochemical", "method": "as §1"}, "[12]": {"target": "PDGFRβ(h) (Homo sapiens, UniProt P09619)", "test": "KinaseProfiler kinase selectivity assay", "assay_type": "biochemical", "method": "as §1"}, "[13]": {"target": "CK1γ1(h) (Homo sapiens, UniProt Q9HCP0)", "test": "KinaseProfiler kinase selectivity assay", "assay_type": "biochemical", "method": "as §1"}, "[14]": {"target": "Mnk2(h) (Homo sapiens, UniProt Q9HBH9)", "test": "KinaseProfiler kinase selectivity assay", "assay_type": "biochemical", "method": "as §1"}, "[15]": {"target": "SPRK1(h) (Homo sapiens, UniProt Q96SB4)", "test": "KinaseProfiler kinase selectivity assay", "assay_type": "biochemical", "method": "as §1"}, "[16]": {"target": "MST1(h) (Homo sapiens, UniProt Q13043)", "test": "KinaseProfiler kinase selectivity assay", "assay_type": "biochemical", "method": "as §1"}, "[17]": {"target": "PKCα(h) (Homo sapiens, UniProt P17252)", "test": "KinaseProfiler kinase selectivity assay", "assay_type": "biochemical", "method": "as §1"}, "[18]": {"system": "GP", "conditions": "in vivo"}, "[19]": {"system": "Salmonella typhimurium", "test": "In vitro Ames test, reverse mutation assay", "assay_type": "cell-based"}, "[20]": {"test": "ex vivo skin permeation and penetration, MedFlux-HT diffusion cells", "assay_type": "in vitro ADME", "conditions": "topical composition comprising LUT014; skin sample; after 24 hours; citrate/phosphate buffer pH 4.0 with 0.01% Brij", "method": "An ex vivo permeation and penetration experiment for a topical composition comprising LUT-014 was conducted using MedFlux-HT™ continuous flow through diffusion cells. A skin sample was placed between donor and receptor compartments of the diffusion cell. The diffusion of the topical composition was measured using a citrate/phosphate buffer (pH 4.0) with 0.01% Brij as a receptor solution. LUT014 permeated into the skin sample was extracted using 90/10 acetonitrile/water as an extraction solvent."}, "[21]": {"system": "minipigs", "test": "MTD Dermal Minipigs", "assay_type": "in vivo", "conditions": "5 mg/kg/day for up to 6 days"}, "[22]": {"system": "BALB/c-3T3 mouse fibroblasts", "test": "3T3 neutral red uptake phototoxicity assay", "assay_type": "cell-based", "conditions": "mouse, 24 h", "method": "Therefore, the compounds of the present disclosure were screened for phototoxicity using the 3T3 natural red uptake assay.\nIn brief, BALB/c-3T3 mouse fibroblasts (originally obtained from ATCC) were seeded in 96-well plates at 12,000 cells per well, and grown for 24 hr. Test compounds and the positive control (chlorpromazine) were solubilized and serially diluted in DMSO. The negative control (histidine) was solubilized and diluted in HBSS. A dilution for all test articles was then made into HBSS at the final testing concentrations. At the start of the assay, the growth medium was removed from the plates and replaced with test agent dilution. Six replicates were used for each concentration. Cells were incubated in the dark with test article for 1 h, exposed to UVA light (2.5 J/cm2 over 18 min) and incubated 24 hrs. in the dark. A parallel non-irradiated plate was treated similarly, except it was stored in the dark, rather than illuminated.\nFor Neutral Red staining, medium was removed and fresh medium containing 25 μg/mL of Neutral Red (Sigma) was added. After three hours incubation, the cells were washed with PBS, and the cellular dye was solubilized with 1% acetic acid in 50% ethanol. Cellular Neutral Red was measured by its absorbance at 540 nm.\nData analysis: An IC50 (concentration that causes 50% reduction in viability) was calculated for each condition by linear interpolation.\nA Photo-Irritation Factor (PIF) was calculated: PIF=IC50(−Irr)/IC50(+Irr)\nPIF>5 indicates phototoxicity; 2<PIF<5 indicates probable phototoxicity; PIF<2 indicates no phototoxicity\nIn addition, the Mean Photo Effect (MPE) was calculated by comparison of the complete concentration-response curves. MPE is a weighted average of the difference in response of equivalent doses normalized by the shift in IC50.\nMPE>0.15 indicates phototoxicity; 0.1<MPE<0.15 indicates probable phototoxicity; MPE<0.1 indicates no phototoxicity."}, "[23]": {"system": "Escherichia coli", "test": "In vitro Ames test, reverse mutation assay", "assay_type": "cell-based"}},
  "data": [
    {"smiles": "Cc1ccc2c(Nc3cccc(OC(F)(F)F)c3)nccc2c1Nc1ncccc1-c1ncnc2[nH]cnc12", "note": "[LUT014]", "values": [
      {"measurement": "remaining activity at 0.01 µM", "setting": "[1]; Lut014 @ 0.01 μM", "result": 101, "unit": "%"},
      {"measurement": "remaining activity at 1 µM", "setting": "[1]; Lut014 @ 1 μM", "result": 97, "unit": "%"},
      {"measurement": "remaining activity at 0.01 µM", "setting": "[2]; Lut014 @ 0.01 μM", "result": 96, "unit": "%"},
      {"measurement": "remaining activity at 1 µM", "setting": "[2]; Lut014 @ 1 μM", "result": 83, "unit": "%"},
      {"measurement": "remaining activity at 0.01 µM", "setting": "[3]; Lut014 @ 0.01 μM", "result": 98, "unit": "%"},
      {"measurement": "remaining activity at 1 µM", "setting": "[3]; Lut014 @ 1 μM", "result": 105, "unit": "%"},
      {"measurement": "remaining activity at 0.01 µM", "setting": "[4]; Lut014 @ 0.01 μM", "result": 126, "unit": "%"},
      {"measurement": "remaining activity at 1 µM", "setting": "[4]; Lut014 @ 1 μM", "result": 118, "unit": "%"},
      {"measurement": "remaining activity at 0.01 µM", "setting": "[5]; Lut014 @ 0.01 μM", "result": 106, "unit": "%"},
      {"measurement": "remaining activity at 1 µM", "setting": "[5]; Lut014 @ 1 μM", "result": 113, "unit": "%"},
      {"measurement": "remaining activity at 0.01 µM", "setting": "[6]; Lut014 @ 0.01 μM", "result": 105, "unit": "%"},
      {"measurement": "remaining activity at 1 µM", "setting": "[6]; Lut014 @ 1 μM", "result": 109, "unit": "%"},
      {"measurement": "remaining activity at 0.01 µM", "setting": "[7]; Lut014 @ 0.01 μM", "result": 106, "unit": "%"},
      {"measurement": "remaining activity at 1 µM", "setting": "[7]; Lut014 @ 1 μM", "result": 112, "unit": "%"},
      {"measurement": "remaining activity at 0.01 µM", "setting": "[8]; Lut014 @ 0.01 μM", "result": 101, "unit": "%"},
      {"measurement": "remaining activity at 1 µM", "setting": "[8]; Lut014 @ 1 μM", "result": 103, "unit": "%"},
      {"measurement": "remaining activity at 0.01 µM", "setting": "[9]; Lut014 @ 0.01 μM", "result": 101, "unit": "%"},
      {"measurement": "remaining activity at 1 µM", "setting": "[9]; Lut014 @ 1 μM", "result": 46, "unit": "%"},
      {"measurement": "remaining activity at 0.01 µM", "setting": "[10]; Lut014 @ 0.01 μM", "result": 92, "unit": "%"},
      {"measurement": "remaining activity at 1 µM", "setting": "[10]; Lut014 @ 1 μM", "result": 25, "unit": "%"},
      {"measurement": "remaining activity at 0.01 µM", "setting": "[11]; Lut014 @ 0.01 μM", "result": 102, "unit": "%"},
      {"measurement": "remaining activity at 1 µM", "setting": "[11]; Lut014 @ 1 μM", "result": 105, "unit": "%"},
      {"measurement": "remaining activity at 0.01 µM", "setting": "[12]; Lut014 @ 0.01 μM", "result": 98, "unit": "%"},
      {"measurement": "remaining activity at 1 µM", "setting": "[12]; Lut014 @ 1 μM", "result": 103, "unit": "%"},
      {"measurement": "remaining activity at 0.01 µM", "setting": "[13]; Lut014 @ 0.01 μM", "result": 94, "unit": "%"},
      {"measurement": "remaining activity at 1 µM", "setting": "[13]; Lut014 @ 1 μM", "result": 101, "unit": "%"},
      {"measurement": "remaining activity at 0.01 µM", "setting": "[14]; Lut014 @ 0.01 μM", "result": 112, "unit": "%"},
      {"measurement": "remaining activity at 1 µM", "setting": "[14]; Lut014 @ 1 μM", "result": 107, "unit": "%"},
      {"measurement": "remaining activity at 0.01 µM", "setting": "[15]; Lut014 @ 0.01 μM", "result": 105, "unit": "%"},
      {"measurement": "remaining activity at 1 µM", "setting": "[15]; Lut014 @ 1 μM", "result": 100, "unit": "%"},
      {"measurement": "remaining activity at 0.01 µM", "setting": "[16]; Lut014 @ 0.01 μM", "result": 98, "unit": "%"},
      {"measurement": "remaining activity at 1 µM", "setting": "[16]; Lut014 @ 1 μM", "result": 112, "unit": "%"},
      {"measurement": "remaining activity at 0.01 µM", "setting": "[17]; Lut014 @ 0.01 μM", "result": 102, "unit": "%"},
      {"measurement": "remaining activity at 1 µM", "setting": "[17]; Lut014 @ 1 μM", "result": 107, "unit": "%"},
      {"measurement": "dermal sensitization", "setting": "[18]", "result": "The test article is not"},
      {"measurement": "mutagenicity, Salmonella typhimurium reverse mutation assay", "setting": "[19]", "result": "not mutagenic"},
      {"measurement": "maximum accumulated level of LUT014 in the receptor solution", "setting": "[20]", "result": "less than 2 ng/mL"},
      {"measurement": "tolerability", "setting": "[21]", "result": "well tolerated in minipigs at"},
      {"measurement": "phototoxicity (3T3 NRU), stated in words", "setting": "[22]", "result": "Lut014 is classified as non-phototoxic"},
      {"measurement": "mutagenicity, Escherichia coli reverse mutation assay", "setting": "[23]", "result": "not mutagenic"}
    ]}
  ]
}
